The values that follow come from patent publication EP0626016B1, “[…] […]” (BRITISH TECHNOLOGY GROUP LIMITED, priority 1992, dated 1993).

This experiment concerns the target T1, HRP Type VIA (Armoracia rusticana, UniProt P00433).
T1 sequence (P00433 31-338): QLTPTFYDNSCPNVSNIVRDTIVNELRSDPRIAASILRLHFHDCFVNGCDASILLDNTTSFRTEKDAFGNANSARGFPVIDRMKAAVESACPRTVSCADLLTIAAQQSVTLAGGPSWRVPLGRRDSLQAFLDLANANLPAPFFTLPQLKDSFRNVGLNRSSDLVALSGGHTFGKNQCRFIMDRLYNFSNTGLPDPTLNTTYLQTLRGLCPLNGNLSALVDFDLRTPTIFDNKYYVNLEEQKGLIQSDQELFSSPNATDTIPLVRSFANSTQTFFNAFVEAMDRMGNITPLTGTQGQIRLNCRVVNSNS
The conditions noted are these: for (d) Signal: Background: ratio (control = with no enhancer): control value in brackets not reported.

Like-named read-outs stand apart in the source and are kept apart here.

With `OB(O)c1ccc(Nc2ccc(Cl)cc2)cc1` [Compound 1033, 4-(4'-chloroanilino)phenylboronic acid], where the note is “0.01 mg/ml, 10µl test compound”, the “(a) Decrease in background (without HRP with test cpd.)” value is given as “Y”; the “(b) Increase in signal (with HRP, with test cpd.)” value (from here on “(b) Increase in signal”) was “Y”; the “(c) Increase in signal: background ratio” value is recorded as “Y (Column (c) shows whether there was an increase in the signal:background ratio by over 25% of the control value (Y = yes)”; the “(d) Signal: Background: ratio (control = with no enhancer)” value is on record as 4.1 (1.8). Further, under “0.1 mg/ml, 10µl test compound”, the “(a) Decrease in background (without HRP with test cpd.)” value is listed as “Y”; the “(b) Increase in signal” value is on record as “Y”; the “(c) Increase in signal: background ratio” value is given as “Y (Column (c) shows whether there was an increase in the signal:background ratio by over 25% of the control value (Y = yes)”; the “(d) Signal: Background: ratio (control = with no enhancer)” value is 67.7 (2.8). Further, under “1 mg/ml, 10µl test compound”, the “(a) Decrease in background (without HRP with test cpd.)” value is recorded as “Y”; the “(b) Increase in signal” value was “Y”; the “(c) Increase in signal: background ratio” value was “Y (Column (c) shows whether there was an increase in the signal:background ratio by over 25% of the control value (Y = yes)”; the “(d) Signal: Background: ratio (control = with no enhancer)” value is 173.9 (4.5).
Turning to `OB(O)c1cccc2c1Sc1ccccc1S2` [Compound 1007, 1-thianthreneboronic acid], under “0.01 mg/ml, 10µl test compound”, the “(a) Decrease in background (without HRP with test cpd.)” value is reported as “Y”; the “(b) Increase in signal” value is reported as “N”; the “(c) Increase in signal: background ratio” value is recorded as “N (N = no)”; the “(d) Signal: Background: ratio (control = with no enhancer)” value was determined as 2.1. Further, under “0.1 mg/ml, 10µl test compound”, the “(a) Decrease in background (without HRP with test cpd.)” value was “Y”; the “(b) Increase in signal” value is “N”; the “(c) Increase in signal: background ratio” value was “N (N = no)”; the “(d) Signal: Background: ratio (control = with no enhancer)” value is 2.5. Where the note is “1 mg/ml, 10µl test compound”, the “(a) Decrease in background (without HRP with test cpd.)” value was “Y”; the “(b) Increase in signal” value is “N”; the “(c) Increase in signal: background ratio” value is reported as “N (N = no)”; the “(d) Signal: Background: ratio (control = with no enhancer)” value was 1.8 (2.1).
As to `OB(O)c1cccc(Cl)c1` [Compound 1028, 3-chlorophenylboronic acid], the “(a) Decrease in background (without HRP with test cpd.)” value is “Y”; the “(b) Increase in signal” value is “N and Y”.
Turning to `OB(O)c1ccc(Oc2ccccc2)cc1` [Compound 1010, 4-(phenoxy)benzeneboronic acid], for the setting “0.01 mg/ml, 10µl test compound”, the “(a) Decrease in background (without HRP with test cpd.)” value is recorded as “Y”; the “(b) Increase in signal” value is on record as “N”; the “(c) Increase in signal: background ratio” value was “N (N = no)”; the “(d) Signal: Background: ratio (control = with no enhancer)” value is listed as 3.0. Under “0.1 mg/ml, 10µl test compound”, the “(a) Decrease in background (without HRP with test cpd.)” value was “Y”; the “(b) Increase in signal” value was “N”; the “(c) Increase in signal: background ratio” value was “Y (Column (c) shows whether there was an increase in the signal:background ratio by over 25% of the control value (Y = yes)”; the “(d) Signal: Background: ratio (control = with no enhancer)” value is on record as 4.6. Besides, where the note is “1 mg/ml, 10µl test compound”, the “(a) Decrease in background (without HRP with test cpd.)” value is “Y”; the “(b) Increase in signal” value is recorded as “N”; the “(c) Increase in signal: background ratio” value was “Y (Column (c) shows whether there was an increase in the signal:background ratio by over 25% of the control value (Y = yes)”; the “(d) Signal: Background: ratio (control = with no enhancer)” value is 5.0 (2.5).
Consider `O=C(O)c1ccc(B(O)O)cc1[N+](=O)[O-]` [Compound 1045, 4-carboxy-3-nitrophenylboronic acid], for which, under “0.01 mg/ml, 10µl test compound”, the “(a) Decrease in background (without HRP with test cpd.)” value is on record as “Y”; the “(b) Increase in signal” value is given as “N”; the “(c) Increase in signal: background ratio” value is reported as “N (N = no)”; the “(d) Signal: Background: ratio (control = with no enhancer)” value is given as 2.2 (2.0). Further, where the note is “0.1 mg/ml, 10µl test compound”, the “(a) Decrease in background (without HRP with test cpd.)” value was “Y”; the “(b) Increase in signal” value was “Y”; the “(c) Increase in signal: background ratio” value is “Y (Column (c) shows whether there was an increase in the signal:background ratio by over 25% of the control value (Y = yes)”; the “(d) Signal: Background: ratio (control = with no enhancer)” value is given as 18.1 (2.8). Where the note is “1 mg/ml, 10µl test compound”, the “(a) Decrease in background (without HRP with test cpd.)” value is “Y”; the “(b) Increase in signal” value was “N”; the “(c) Increase in signal: background ratio” value was “Y (Column (c) shows whether there was an increase in the signal:background ratio by over 25% of the control value (Y = yes)”; the “(d) Signal: Background: ratio (control = with no enhancer)” value is reported as 68.5 (4.5).
As to `O=C(O)c1ccc(N=Nc2ccc(O)c(B(O)O)c2)cc1` [Compound 1018, 4-(3'-borono-4'-hydroxyphenylazo)benzoic acid], where the note is “0.01 mg/ml, 10µl test compound”, the “(a) Decrease in background (without HRP with test cpd.)” value is recorded as “Y”; the “(b) Increase in signal” value is “N”; the “(c) Increase in signal: background ratio” value was “Y (Column (c) shows whether there was an increase in the signal:background ratio by over 25% of the control value (Y = yes)”; the “(d) Signal: Background: ratio (control = with no enhancer)” value was 5.0. Further, where the note is “0.1 mg/ml, 10µl test compound”, the “(a) Decrease in background (without HRP with test cpd.)” value was “Y”; the “(b) Increase in signal” value is reported as “N”; the “(c) Increase in signal: background ratio” value was “Y (Column (c) shows whether there was an increase in the signal:background ratio by over 25% of the control value (Y = yes)”; the “(d) Signal: Background: ratio (control = with no enhancer)” value worked out at 24.5. In addition, for the setting “1 mg/ml, 10µl test compound”, the “(a) Decrease in background (without HRP with test cpd.)” value is reported as “Y”; the “(b) Increase in signal” value was “N”; the “(c) Increase in signal: background ratio” value is on record as “Y (Column (c) shows whether there was an increase in the signal:background ratio by over 25% of the control value (Y = yes)”; the “(d) Signal: Background: ratio (control = with no enhancer)” value is given as 4.2 (1.9).
`Nc1c(Cl)cc(Cl)c(B(O)O)c1Cl` [Compound 1026, 3-amino-2,4,6-trichlorophenylboronic acid]: for the setting “0.01 mg/ml, 10µl test compound”, the “(a) Decrease in background (without HRP with test cpd.)” value is reported as “Y”; the “(b) Increase in signal” value was “N”; the “(c) Increase in signal: background ratio” value is recorded as “N (N = no)”; the “(d) Signal: Background: ratio (control = with no enhancer)” value is 2.1 (2.0). Moreover, for the setting “0.1 mg/ml, 10µl test compound”, the “(a) Decrease in background (without HRP with test cpd.)” value is “Y”; the “(b) Increase in signal” value was “Y”; the “(c) Increase in signal: background ratio” value is recorded as “Y (Column (c) shows whether there was an increase in the signal:background ratio by over 25% of the control value (Y = yes)”; the “(d) Signal: Background: ratio (control = with no enhancer)” value was 72.4 (2.8). For the same compound, for the setting “1 mg/ml, 10µl test compound”, the “(a) Decrease in background (without HRP with test cpd.)” value was “Y”; the “(b) Increase in signal” value is reported as “N”; the “(c) Increase in signal: background ratio” value is reported as “Y (Column (c) shows whether there was an increase in the signal:background ratio by over 25% of the control value (Y = yes)”; the “(d) Signal: Background: ratio (control = with no enhancer)” value was 40.5 (4.5).
Take `OB(O)c1ccccc1-c1ccccc1` [Compound 1004, 2-biphenylboronic acid]: where the note is “0.01 mg/ml, 10µl test compound”, the “(a) Decrease in background (without HRP with test cpd.)” value was “Y”; the “(b) Increase in signal” value is given as “N”; the “(c) Increase in signal: background ratio” value is listed as “N (N = no)”; the “(d) Signal: Background: ratio (control = with no enhancer)” value stood at 1.9. For the same compound, under “0.1 mg/ml, 10µl test compound”, the “(a) Decrease in background (without HRP with test cpd.)” value is recorded as “Y”; the “(b) Increase in signal” value is on record as “N”; the “(c) Increase in signal: background ratio” value is reported as “N (N = no)”; the “(d) Signal: Background: ratio (control = with no enhancer)” value is reported as 2.2. Further, under “1 mg/ml, 10µl test compound”, the “(a) Decrease in background (without HRP with test cpd.)” value is “Y”; the “(b) Increase in signal” value is reported as “N”; the “(c) Increase in signal: background ratio” value is given as “N (N = no)”; the “(d) Signal: Background: ratio (control = with no enhancer)” value is on record as 1.7 (2.3).
`CCC(C)CNc1cccc(B(O)O)c1` (stereo not drawn) [Compound 1032, 3-(2'-methylbutylamino)phenylboronic acid]: for the setting “0.01 mg/ml, 10µl test compound”, the “(a) Decrease in background (without HRP with test cpd.)” value is listed as “Y”; the “(b) Increase in signal” value is “N”; the “(c) Increase in signal: background ratio” value is “N (N = no)”. In addition, for the setting “0.1 mg/ml, 10µl test compound”, the “(a) Decrease in background (without HRP with test cpd.)” value is “Y”; the “(b) Increase in signal” value was “N”; the “(c) Increase in signal: background ratio” value is recorded as “N (N = no)”; the “(d) Signal: Background: ratio (control = with no enhancer)” value was 3.4 (2.9). For the same compound, for the setting “1 mg/ml, 10µl test compound”, the “(a) Decrease in background (without HRP with test cpd.)” value is on record as “Y”; the “(b) Increase in signal” value was “N”; the “(c) Increase in signal: background ratio” value is “N (N = no)”.
For the compound `CCCCOB(OCCCC)c1ccc(Br)cc1` [Compound 1044, 4-bromophenyl-di-n-butoxyborane], where the note is “0.01 mg/ml, 10µl test compound”, the “(a) Decrease in background (without HRP with test cpd.)” value is “Y”; the “(b) Increase in signal” value is listed as “Y”; the “(c) Increase in signal: background ratio” value is “Y (Column (c) shows whether there was an increase in the signal:background ratio by over 25% of the control value (Y = yes)”; the “(d) Signal: Background: ratio (control = with no enhancer)” value is on record as 38.5 (1.9). Besides, under “0.1 mg/ml, 10µl test compound”, the “(a) Decrease in background (without HRP with test cpd.)” value is reported as “Y”; the “(b) Increase in signal” value is reported as “Y”; the “(c) Increase in signal: background ratio” value was “Y (Column (c) shows whether there was an increase in the signal:background ratio by over 25% of the control value (Y = yes)”; the “(d) Signal: Background: ratio (control = with no enhancer)” value is reported as 623.1 (2.7). For the same compound, where the note is “1 mg/ml, 10µl test compound”, the “(a) Decrease in background (without HRP with test cpd.)” value is reported as “Y”; the “(b) Increase in signal” value was “N”; the “(c) Increase in signal: background ratio” value is “Y (Column (c) shows whether there was an increase in the signal:background ratio by over 25% of the control value (Y = yes)”; the “(d) Signal: Background: ratio (control = with no enhancer)” value is given as 147.1 (4.5).
